Measured values reported in US20090181986A1, “SUBSTITUTED HETEROCYCLIC COMPOUNDS” (priority 2007, published 2009).

What was measured:
[1] = biological target: T1, human cardiac L-type calcium channels (hCav1.2, coexpressed with the beta 2 subunit) (Homo sapiens, UniProt Q13936); test: L-type calcium channel patch clamp screening assay (ICaL, HEK293); assay type: cell-based; conditions: hCav1.2 in HEK293, percentage of current inhibited at steady state; for ICaL Patch Clamp Assay 1 μM % blk: 1 μM test compound; for ICaL Patch Clamp Assay 10 μM % blk: 10 μM test compound
T1 construct: expressed in transfected cells
T1 sequence (Q13936 whole entry): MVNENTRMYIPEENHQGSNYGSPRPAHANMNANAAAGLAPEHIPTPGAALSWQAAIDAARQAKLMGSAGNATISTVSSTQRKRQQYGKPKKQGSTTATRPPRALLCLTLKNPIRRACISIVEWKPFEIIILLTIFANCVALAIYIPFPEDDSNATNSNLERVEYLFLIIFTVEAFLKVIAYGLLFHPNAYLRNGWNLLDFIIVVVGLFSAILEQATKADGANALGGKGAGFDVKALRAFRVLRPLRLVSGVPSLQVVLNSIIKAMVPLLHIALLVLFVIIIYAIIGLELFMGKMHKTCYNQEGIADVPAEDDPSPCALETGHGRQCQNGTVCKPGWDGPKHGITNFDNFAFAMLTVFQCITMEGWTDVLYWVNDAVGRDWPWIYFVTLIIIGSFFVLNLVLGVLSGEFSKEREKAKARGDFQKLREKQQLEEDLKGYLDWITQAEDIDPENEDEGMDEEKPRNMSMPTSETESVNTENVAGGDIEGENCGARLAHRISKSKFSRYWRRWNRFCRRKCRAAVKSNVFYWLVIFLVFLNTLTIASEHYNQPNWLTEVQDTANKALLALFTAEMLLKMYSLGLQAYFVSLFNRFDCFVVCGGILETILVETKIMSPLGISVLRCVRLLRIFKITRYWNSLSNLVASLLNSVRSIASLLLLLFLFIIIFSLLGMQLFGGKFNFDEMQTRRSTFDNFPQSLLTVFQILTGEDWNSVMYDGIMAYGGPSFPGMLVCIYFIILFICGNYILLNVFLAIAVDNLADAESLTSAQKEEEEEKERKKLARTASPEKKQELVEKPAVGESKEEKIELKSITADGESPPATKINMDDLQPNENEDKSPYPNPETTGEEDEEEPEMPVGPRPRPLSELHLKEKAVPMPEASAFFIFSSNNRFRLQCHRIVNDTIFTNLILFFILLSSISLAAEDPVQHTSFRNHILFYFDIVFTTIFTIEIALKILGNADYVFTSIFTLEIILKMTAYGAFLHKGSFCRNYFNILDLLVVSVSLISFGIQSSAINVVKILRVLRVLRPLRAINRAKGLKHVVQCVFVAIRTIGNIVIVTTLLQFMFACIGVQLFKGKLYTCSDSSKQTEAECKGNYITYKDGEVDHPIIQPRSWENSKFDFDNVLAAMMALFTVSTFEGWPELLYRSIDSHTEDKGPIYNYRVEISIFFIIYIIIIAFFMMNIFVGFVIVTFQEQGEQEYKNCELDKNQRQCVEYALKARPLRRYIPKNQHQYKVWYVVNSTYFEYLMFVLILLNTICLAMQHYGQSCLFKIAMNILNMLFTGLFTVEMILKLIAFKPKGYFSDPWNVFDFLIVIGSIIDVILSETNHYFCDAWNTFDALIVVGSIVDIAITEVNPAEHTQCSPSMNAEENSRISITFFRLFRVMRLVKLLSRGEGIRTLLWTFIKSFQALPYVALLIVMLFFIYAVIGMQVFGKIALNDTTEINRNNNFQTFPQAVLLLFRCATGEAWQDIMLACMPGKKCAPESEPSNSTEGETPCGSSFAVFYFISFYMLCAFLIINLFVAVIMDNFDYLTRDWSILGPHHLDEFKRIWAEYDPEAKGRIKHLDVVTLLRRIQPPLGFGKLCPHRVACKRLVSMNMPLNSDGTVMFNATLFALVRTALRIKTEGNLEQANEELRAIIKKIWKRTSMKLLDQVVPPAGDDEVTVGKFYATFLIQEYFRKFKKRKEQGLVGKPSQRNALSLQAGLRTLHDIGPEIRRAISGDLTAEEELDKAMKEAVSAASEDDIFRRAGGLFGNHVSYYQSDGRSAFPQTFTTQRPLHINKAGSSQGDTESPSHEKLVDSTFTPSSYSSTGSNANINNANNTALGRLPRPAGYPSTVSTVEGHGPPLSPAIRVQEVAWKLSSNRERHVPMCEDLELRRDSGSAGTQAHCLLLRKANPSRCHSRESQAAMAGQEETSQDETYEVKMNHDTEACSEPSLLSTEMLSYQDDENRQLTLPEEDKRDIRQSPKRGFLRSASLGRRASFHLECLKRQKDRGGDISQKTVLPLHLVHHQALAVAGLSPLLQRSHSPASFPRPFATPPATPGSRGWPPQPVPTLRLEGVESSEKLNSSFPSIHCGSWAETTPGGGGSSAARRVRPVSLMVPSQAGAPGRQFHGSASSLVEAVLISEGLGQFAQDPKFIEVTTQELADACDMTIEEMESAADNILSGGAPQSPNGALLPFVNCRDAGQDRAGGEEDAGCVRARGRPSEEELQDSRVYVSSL
T1 sequence (Q08289 whole entry partner): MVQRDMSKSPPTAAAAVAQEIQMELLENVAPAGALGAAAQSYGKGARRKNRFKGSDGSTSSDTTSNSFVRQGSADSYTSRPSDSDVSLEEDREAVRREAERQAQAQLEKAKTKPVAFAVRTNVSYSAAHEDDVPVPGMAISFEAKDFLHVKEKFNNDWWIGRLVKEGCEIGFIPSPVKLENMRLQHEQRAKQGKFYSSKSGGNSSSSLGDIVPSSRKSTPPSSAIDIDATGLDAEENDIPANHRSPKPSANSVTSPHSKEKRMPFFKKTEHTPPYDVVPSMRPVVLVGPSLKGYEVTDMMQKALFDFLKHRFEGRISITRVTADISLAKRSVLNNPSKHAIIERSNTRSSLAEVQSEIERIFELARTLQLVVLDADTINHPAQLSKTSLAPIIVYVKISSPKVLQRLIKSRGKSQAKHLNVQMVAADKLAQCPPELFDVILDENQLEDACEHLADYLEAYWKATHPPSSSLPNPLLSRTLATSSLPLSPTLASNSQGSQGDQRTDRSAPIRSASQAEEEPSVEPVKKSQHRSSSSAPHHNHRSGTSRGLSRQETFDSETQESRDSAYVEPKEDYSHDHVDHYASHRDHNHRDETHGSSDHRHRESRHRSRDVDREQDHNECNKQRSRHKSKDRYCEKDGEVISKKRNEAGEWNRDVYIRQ
Experimental: Compounds are screened to test for block of human cardiac L-type calcium channels (hCav1.2, encoded by the human CACNA1C gene and coexpressed with the beta 2 subunit, encoded by the human CACNB2 gene) expressed in an HEK293 cell line. Stable transfectants were selected using antibiotic resistance genes incorporated into the expression plasmids and selection pressure is maintained with selection antibiotics added to the culture medium. Cells are cultured using standard tissue culture methods for HEK293 cells.
Cells are harvested for addition to a PatchXpress automated patch clamp system. The external solution contains: 137 mM NaCl; 4 mM KCl; 1.8 mM CaCl2; 1 mM MgCl2; […]; 10 mM Glucose (pH adjusted to 7.4 with NaOH). The internal solution contains: 130 mM Cs Aspartate; 5 mM MgCl2; 5 mM EGTA; 4 mM ATP; 0.1 mM GTP; 10 mM HEPES (pH adjusted to 7.2 with N-methyl-D-glucamine).
Onset of block and steady state block of hCav1.2 channels are monitored using a stimulus voltage pattern consisting of a depolarizing test pulse (duration, 200 ms; amplitude, 10 mV) at 10s intervals from a −80 mV holding potential (FIG. 5). Test compound concentrations (1 μM and 10 μM) are applied cumulatively in ascending order without washout between applications. Peak current is measured during the step to 10 mV. A saturating concentration of nifedipine (10 μM) is added at the end of each experiment to completely block hCav1.2 current and verify sensitivity to channel blockade. Leakage current is measured after nifedipine addition and digitally subtracted from the total membrane current record. Each compound is applied to naive cells and each concentration is applied four times for a total exposure duration of five (5) minutes per concentration.
Test compound stock solutions are prepared in dimethyl sulfoxide (DMSO) and stored frozen. Test compound concentrations are prepared fresh daily by diluting stock solutions into the external HEPES-buffered physiological saline solution described above. […] Each test compound formulation is sonicated (Model 2510/5510, Branson Ultrasonics, Danbury, Conn.), at ambient room temperature for at least 20 minutes to facilitate dissolution. In preparation for the recording session, a glass-lined 96-well compound plate is loaded with the appropriate amounts of test and control solutions, and placed in the plate well of PatchXpress® (Model 7000A, MDS Analytical Technologies, Sunnyvale, Calif.).
Data acquisition and analyses are performed using conventional software. Steady state is defined by the limiting constant rate of change with time (linear time dependence). The steady state before and after test compound application is used to calculate the percentage of current inhibited at each concentration.

[2] = biological target: hERG potassium channel (Homo sapiens, UniProt Q12809); test: hERG screening assay (PatchXpress patch clamp, CHO cells)
Sequence of hERG potassium channel (Q12809 whole entry): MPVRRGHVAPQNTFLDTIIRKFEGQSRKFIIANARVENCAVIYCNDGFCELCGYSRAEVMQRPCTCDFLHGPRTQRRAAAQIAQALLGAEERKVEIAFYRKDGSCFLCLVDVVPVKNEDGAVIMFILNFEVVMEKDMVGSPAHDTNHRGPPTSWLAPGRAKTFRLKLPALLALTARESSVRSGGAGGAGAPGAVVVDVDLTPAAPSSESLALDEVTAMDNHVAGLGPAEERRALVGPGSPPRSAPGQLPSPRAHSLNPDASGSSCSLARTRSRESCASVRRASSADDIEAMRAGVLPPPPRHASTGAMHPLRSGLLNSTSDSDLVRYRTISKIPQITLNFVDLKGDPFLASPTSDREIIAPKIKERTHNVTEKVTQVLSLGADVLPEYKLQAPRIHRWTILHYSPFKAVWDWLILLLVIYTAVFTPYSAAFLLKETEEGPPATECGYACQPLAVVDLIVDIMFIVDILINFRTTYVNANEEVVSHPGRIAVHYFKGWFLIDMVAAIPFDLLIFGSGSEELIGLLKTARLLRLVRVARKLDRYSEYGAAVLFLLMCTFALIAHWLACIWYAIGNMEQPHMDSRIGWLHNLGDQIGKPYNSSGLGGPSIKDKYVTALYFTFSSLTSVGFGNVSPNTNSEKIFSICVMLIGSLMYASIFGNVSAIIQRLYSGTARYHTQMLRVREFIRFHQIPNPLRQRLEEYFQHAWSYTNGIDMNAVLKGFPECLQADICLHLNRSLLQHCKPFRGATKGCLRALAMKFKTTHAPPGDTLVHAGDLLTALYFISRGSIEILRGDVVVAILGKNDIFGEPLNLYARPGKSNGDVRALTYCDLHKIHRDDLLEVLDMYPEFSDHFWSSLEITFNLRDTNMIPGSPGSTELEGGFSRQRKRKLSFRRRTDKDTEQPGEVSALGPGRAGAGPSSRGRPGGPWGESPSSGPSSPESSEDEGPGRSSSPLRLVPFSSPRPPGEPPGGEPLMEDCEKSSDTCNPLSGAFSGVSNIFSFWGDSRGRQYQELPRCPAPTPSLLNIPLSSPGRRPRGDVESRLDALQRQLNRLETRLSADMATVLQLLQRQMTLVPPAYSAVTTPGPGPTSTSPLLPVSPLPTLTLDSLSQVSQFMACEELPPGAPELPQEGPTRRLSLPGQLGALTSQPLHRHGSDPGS
Experimental: Compounds were screened to test their activity in blocking the hERG potassium channel. The hERG channel is heterologously expressed in a CHO (Chinese Hamster Ovary) cell line. Cells are maintained with standard tissue culture procedures and stable channel expression is maintained with 500 μg/ml G418 in the culture medium. Cells are harvested for testing on the PatchXpress automated patch clamp with Acctumax (Innovative Cell Technologies, San Diego, Calif.) to isolate single cells.
The following solutions are used for electrophysiological recordings. The external solution contains: 2 mM CaCl2; 2 mM MgCl2; 4 mM KCl; 150 mM NaCl; 10 mM Glucose; 10 mM HEPES (pH 7.4 with 1M NaOH, osmolarity).
hERG channels are activated when the voltage is stepped to +20 mV from the −80 mV holding potential (see FIG. 3). During a 5 second step at +20 mV, the channels activate and then largely inactivate, so the currents are relatively small. Upon returning to −50 mV from +20 mV, hERG currents transiently become much larger as inactivation is rapidly removed and then the channel closes. The first step to −50 mV for 300 ms is used as a baseline for measuring the peak amplitude during the step to −50 mV after channel activation. The peak current at −50 mV is measured both under control conditions and after addition of compound.
All compounds are prepared as 10 mM DMSO stocks in glass vials. Stock solutions are mixed by vigorous vortexing and sonication for about 2 minutes at room temperature. For testing, compounds are diluted in glass vials using an intermediate dilution step in pure DMSO and then further diluted to working concentrations in external solution. Dilutions are prepared no longer than 20 minutes before use.
After achieving the whole-cell configuration, cells are monitored for 90 seconds to assess stability and washed with external solution for 66 seconds. The voltage protocol described above is then applied to the cells every 12 seconds and throughout the whole procedure. Only cells with stable recording parameters and meeting specified health criteria are allowed to enter the compound addition procedure.
External solution containing 0.1% DMSO (vehicle) is applied to the cells first to establish the control peak current amplitude. After allowing the current to stabilize for 3 to 5 minutes, 1 μM and then 10 μM test compounds are applied. Each compound concentration is added 4 times and cells are kept in test solution until the effect of the compound reaches steady state or for a maximum of 12 minutes. […] Washout in the external solution compartment is performed until the recovery of the current reaches steady state. Data are analyzed using DataXpress, Clampfit (Molecular Devices, Inc., Sunnyvale) and Origin 7 (Originlab Corp.)

For CC1=C(C(=O)OCc2ccccc2)C(c2ccc(N(C)C)cc2[N+](=O)[O-])n2nnnc2N1 (centres unmarked) [PT-409, benzyl 7-(4-(dimethylamino)-2-nitrophenyl)-5-methyl-4,7-dihydrotetrazolo[1,5-a]pyrimidine-6-carboxylate], the “ICaL Patch Clamp Assay 1 μM % blk” value [1] was 2.7%, the “ICaL Patch Clamp Assay 10 μM % blk” value [1] was 19.9% and the “hERG Patch Clamp hERG % blk (1 μM test cmpd)” value [2] was 27%. The “hERG Patch Clamp hERG % blk (10 μM test cmpd)” value [2] was 78.5%.
CCOC(=O)C1=C(C)NC(C)=C(C(=O)OCC)C1c1ccccc1Br [PT-430, diethyl 4-(2-bromophenyl)-2,6-dimethyl-1,4-dihydropyridine-3,5-dicarboxylate] was tested, and the “ICaL Patch Clamp Assay 1 μM % blk” value [1] was 91.8%, the “ICaL Patch Clamp Assay 10 μM % blk” value [1] was 98.6% and the “hERG Patch Clamp hERG % blk (1 μM test cmpd)” value [2] was 10%. For the same molecule, the “hERG Patch Clamp hERG % blk (10 μM test cmpd)” value [2] was 21.5%.
CCOC(=O)C1=C(C)NC(C)=C(C(=O)OCC)C1c1ccc(OC)cc1C#N [PT-431, diethyl 4-(2-cyano-4-methoxyphenyl)-2,6-dimethyl-1,4-dihydropyridine-3,5-dicarboxylate] was tested, and the “ICaL Patch Clamp Assay 1 μM % blk” value [1] was 3.7% and the “ICaL Patch Clamp Assay 10 μM % blk” value [1] was 2.4%.
For CCOC(=O)C1=C(C)NC(C)=C(C(=O)OCC)C1c1ccc(OC)cc1F [PT-432, diethyl 4-(2-fluoro-4-methoxyphenyl)-2,6-dimethyl-1,4-dihydropyridine-3,5-dicarboxylate], the “ICaL Patch Clamp Assay 1 μM % blk” value [1] was 3.7% and the “ICaL Patch Clamp Assay 10 μM % blk” value [1] was 35.3%.
With CCOC(=O)C1=C(C)NC(C)=C(C(=O)OCC)C1c1ccc(N(C)C)cc1[N+](=O)[O-] [PT-437, diethyl 4-(4-(dimethylamino)-2-nitrophenyl)-2,6-dimethyl-1,4-dihydropyridine-3,5-dicarboxylate] the “ICaL Patch Clamp Assay 1 μM % blk” value [1] was −0.1% and the “ICaL Patch Clamp Assay 10 μM % blk” value [1] was 13.2%.
